# From ChEMBL document CHEMBL1201862, “PubChem BioAssay data set” (2004)
#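 Briefly, cells in 96-well plates were exposed to five compound concentrations for 48 h, and endpoints were estimated by linear interpolation. GI50 is the concentration that inhibits growth by half.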 Active and inactive are the calls of the source. Cut-off read from the data, not from the text of the source: active = GI50 up to about 1.1 µM and inactive = higher. Where a SMILES comes first, the peptide text is derived from it. Bridges are numbered along the chain shown (N, C = ends). [ ]: non-standard residue; d: D form. The star is where a group is joined. ξ: configuration not given here. PhAc = O=C(Cc1ccccc1)*; ξP = O=C(O)C1CCCN1
# What was measured:
# Experiment in all cases: NCI tumour cell line growth inhibition, 48 h
# OVCAR-8 = system: OVCAR-8
# U-251 = system: U-251
# OVCAR-4 = system: OVCAR-4
# RPMI-8226 = system: RPMI-8226
# A498 = system: A498
# MCF7 = system: MCF7
# HCT-116 = system: HCT-116
# NCI-H522 = system: NCI-H522
# EKVX = system: EKVX
# SK-OV-3 = system: SK-OV-3
# A549 = system: A549
# TK-10 = system: TK-10
# SN12C = system: SN12C
# DU-145 = system: DU-145
# MDA-MB-435 = system: MDA-MB-435
# HCT-15 = system: HCT-15
# HT-29 = system: HT-29
# SK-MEL-5 = system: SK-MEL-5
# COLO 205 = system: COLO 205
# CAKI-1 = system: CAKI-1
SMILES,GI50 (OVCAR-8),GI50 (U-251),GI50 (OVCAR-4),GI50 (RPMI-8226),GI50 (A498),GI50 (MCF7),GI50 (HCT-116),GI50 (NCI-H522),GI50 (EKVX),GI50 (SK-OV-3),GI50 (A549),GI50 (TK-10),GI50 (SN12C),GI50 (DU-145),GI50 (MDA-MB-435),GI50 (HCT-15) [µM],GI50 (HT-29),GI50 (SK-MEL-5),GI50 (COLO 205),GI50 (CAKI-1)
O=C(CCc1ccc(O)c(O)c1)NCCc1ccc(O)c(O)c1,18.3 µM (inactive),17.3 µM (inactive),18.5 µM (inactive),> 100 µM (inactive),> 100 µM (inactive),27.8 µM (inactive),42.8 µM (inactive),> 100 µM (inactive),> 100 µM (inactive),> 100 µM (inactive),> 100 µM (inactive),> 100 µM (inactive),37.1 µM (inactive),> 100 µM (inactive),17.9 µM (inactive),> 100,> 100 µM (inactive),> 100 µM (inactive),> 100 µM (inactive),
COc1ccc(NC2CC(C)N(C(=O)c3ccccc3)O2)cc1 (configuration not stated),> 10 µM (inactive),,> 10 µM (inactive),> 10 µM (inactive),,> 10 µM (inactive),> 10 µM (inactive),> 10 µM (inactive),> 10 µM (inactive),> 10 µM (inactive),> 10 µM (inactive),> 10 µM (inactive),> 10 µM (inactive),> 10 µM (inactive),> 10 µM (inactive),> 10,> 10 µM (inactive),> 10 µM (inactive),> 10 µM (inactive),> 10 µM (inactive)
CC(NC(=O)c1ccccc1)NC(=O)C(C)C(=O)Nc1ccccc1 (configuration not stated),94.6 µM (inactive),> 100 µM (inactive),> 100 µM (inactive),> 100 µM (inactive),,> 100 µM (inactive),> 100 µM (inactive),> 100 µM (inactive),> 100 µM (inactive),> 100 µM (inactive),> 100 µM (inactive),75.2 µM (inactive),> 100 µM (inactive),> 100 µM (inactive),> 100 µM (inactive),> 100,> 100 µM (inactive),> 100 µM (inactive),> 100 µM (inactive),> 100 µM (inactive)
O=C1C(Cl)=C(Cl)C(=O)C(CCNc2nccs2)=C1Cl,29.5 µM (inactive),36.3 µM (inactive),> 100 µM (inactive),,,33 µM (inactive),28.2 µM (inactive),13.1 µM (inactive),24.5 µM (inactive),> 100 µM (inactive),> 100 µM (inactive),29.2 µM (inactive),29.3 µM (inactive),58.7 µM (inactive),21.4 µM (inactive),20.4,35.2 µM (inactive),19.5 µM (inactive),32.8 µM (inactive),19.3 µM (inactive)
COC(=O)C1(C)CCc2c(ccc3ccccc23)C1=O (configuration not stated),40.1 µM (inactive),46.5 µM (inactive),,23.2 µM (inactive),32.7 µM (inactive),30.6 µM (inactive),33.7 µM (inactive),24.9 µM (inactive),31.8 µM (inactive),71.1 µM (inactive),39.3 µM (inactive),31 µM (inactive),44.7 µM (inactive),51.9 µM (inactive),34.4 µM (inactive),34.5,40.2 µM (inactive),18.3 µM (inactive),21.3 µM (inactive),16.1 µM (inactive)
CC(NC(=O)OC(C)(C)C)C(=O)C(N)=O (configuration not stated),> 100 µM (inactive),> 100 µM (inactive),,> 100 µM (inactive),> 100 µM (inactive),> 100 µM (inactive),> 100 µM (inactive),,> 100 µM (inactive),> 100 µM (inactive),> 100 µM (inactive),> 100 µM (inactive),> 100 µM (inactive),> 100 µM (inactive),> 100 µM (inactive),> 100,,> 100 µM (inactive),> 100 µM (inactive),
C=CCOc1ccc(C(/N=N\c2ccc(Cl)cc2)=N/NC(=O)c2ccccc2)cc1OC,37.5 µM (inactive),57.3 µM (inactive),76.7 µM (inactive),,> 100 µM (inactive),> 100 µM (inactive),64.4 µM (inactive),41.3 µM (inactive),> 100 µM (inactive),,> 100 µM (inactive),> 100 µM (inactive),50.5 µM (inactive),> 100 µM (inactive),34.7 µM (inactive),80.7,52.7 µM (inactive),29.9 µM (inactive),85.3 µM (inactive),> 100 µM (inactive)
NNC(=O)c1c(Cl)c(Cl)c(Cl)c(Cl)c1-c1nc2ccccc2[nH]1,29 µM (inactive),,,7.4 µM (inactive),15 µM (inactive),2.96 µM (inactive),13.2 µM (inactive),13.4 µM (inactive),12.4 µM (inactive),15.7 µM (inactive),10 µM (inactive),21.6 µM (inactive),27 µM (inactive),13.2 µM (inactive),2.12 µM (inactive),5.07,14.8 µM (inactive),11.2 µM (inactive),16.4 µM (inactive),13.2 µM (inactive)
Cn1c(NN)nc(-c2ccc([N+](=O)[O-])cc2)c(C#N)c1=O,19.2 µM (inactive),17.1 µM (inactive),15.6 µM (inactive),29.1 µM (inactive),,16.6 µM (inactive),12.8 µM (inactive),16.4 µM (inactive),15.8 µM (inactive),14.9 µM (inactive),19.8 µM (inactive),14.3 µM (inactive),15.6 µM (inactive),16.4 µM (inactive),17.9 µM (inactive),16.4,12.8 µM (inactive),4.25 µM (inactive),20 µM (inactive),26.2 µM (inactive)
C=CCN(C(=O)CNC(=O)C(F)(F)F)c1cc(OCc2ccccc2)c2c(c1)c(C)cn2S(=O)(=O)c1ccccc1,> 26.8 µM (inactive),> 67.9 µM (inactive),9.16 µM (inactive),4.73 µM (inactive),,7.57 µM (inactive),7.66 µM (inactive),6.19 µM (inactive),7.71 µM (inactive),> 100 µM (inactive),7.5 µM (inactive),> 100 µM (inactive),> 100 µM (inactive),> 100 µM (inactive),40.6 µM (inactive),> 100,> 100 µM (inactive),24 µM (inactive),8.02 µM (inactive),> 31 µM (inactive)
O=C1/C(=C/c2ccc3c(c2)CCC3)Cc2cc3c(cc21)CCC3,> 100 µM (inactive),> 100 µM (inactive),> 100 µM (inactive),> 100 µM (inactive),> 100 µM (inactive),> 100 µM (inactive),> 100 µM (inactive),> 100 µM (inactive),> 100 µM (inactive),> 100 µM (inactive),> 100 µM (inactive),> 100 µM (inactive),> 100 µM (inactive),> 100 µM (inactive),> 100 µM (inactive),> 100,> 100 µM (inactive),> 100 µM (inactive),> 100 µM (inactive),
COc1ccc(/C=C/C(=O)c2ccc(Br)cc2)cc1,> 100 µM (inactive),> 100 µM (inactive),> 100 µM (inactive),57 µM (inactive),> 100 µM (inactive),85.7 µM (inactive),80.4 µM (inactive),,> 100 µM (inactive),> 100 µM (inactive),> 100 µM (inactive),> 100 µM (inactive),> 100 µM (inactive),> 100 µM (inactive),> 100 µM (inactive),> 100,> 100 µM (inactive),> 100 µM (inactive),> 100 µM (inactive),> 100 µM (inactive)
COc1ccc([S+]([O-])Cc2cc(OC)ccc2OC)cc1 (configuration not stated),> 100 µM (inactive),> 100 µM (inactive),> 100 µM (inactive),,> 100 µM (inactive),> 100 µM (inactive),> 100 µM (inactive),> 100 µM (inactive),> 100 µM (inactive),> 100 µM (inactive),> 100 µM (inactive),> 100 µM (inactive),> 100 µM (inactive),> 100 µM (inactive),> 100 µM (inactive),> 100,> 100 µM (inactive),,> 100 µM (inactive),> 100 µM (inactive)
C(=N\c1cc2cc(Sc3ccccc3)ccc2[nH]1)/c1ccccc1,> 12.5 µM (inactive),,> 12.5 µM (inactive),> 12.5 µM (inactive),1.83 µM (inactive),> 12.5 µM (inactive),> 12.5 µM (inactive),> 12.5 µM (inactive),> 12.5 µM (inactive),,0.0818 µM (active),,> 12.5 µM (inactive),> 12.5 µM (inactive),4.28 µM (inactive),> 12.5,> 12.5 µM (inactive),10.6 µM (inactive),,> 12.5 µM (inactive)
O=C(Cc1ccccc1)N[C@@H]1COC(=O)C2CCCN2C(=O)[C@@H]2CCCN2C1=O (some centres not stated) (PhAc-[dS]-Pro-[ξP]; ester 1-C),> 100 µM (inactive),,> 100 µM (inactive),,> 100 µM (inactive),> 100 µM (inactive),> 100 µM (inactive),,> 100 µM (inactive),> 100 µM (inactive),> 100 µM (inactive),> 100 µM (inactive),> 100 µM (inactive),> 100 µM (inactive),> 100 µM (inactive),> 100,> 100 µM (inactive),> 100 µM (inactive),> 100 µM (inactive),> 100 µM (inactive)
